The numbers were not newly measured in patent US5420016A, “Test device and kit for detecting helicobacter pylori” (Serim Research Corporation, priority 1994, dated 1995), which cites them from elsewhere.

The data set deals with Urease from H. pylori (Helicobacter pylori, UniProt P69996). As to conditions: read-out: Michaelis constant (urea); substrate urea; from Dunn, et al., J. Biol. Chem., 265:9464-9 (1990).
Sequence of Urease from H. pylori (P69996 whole entry): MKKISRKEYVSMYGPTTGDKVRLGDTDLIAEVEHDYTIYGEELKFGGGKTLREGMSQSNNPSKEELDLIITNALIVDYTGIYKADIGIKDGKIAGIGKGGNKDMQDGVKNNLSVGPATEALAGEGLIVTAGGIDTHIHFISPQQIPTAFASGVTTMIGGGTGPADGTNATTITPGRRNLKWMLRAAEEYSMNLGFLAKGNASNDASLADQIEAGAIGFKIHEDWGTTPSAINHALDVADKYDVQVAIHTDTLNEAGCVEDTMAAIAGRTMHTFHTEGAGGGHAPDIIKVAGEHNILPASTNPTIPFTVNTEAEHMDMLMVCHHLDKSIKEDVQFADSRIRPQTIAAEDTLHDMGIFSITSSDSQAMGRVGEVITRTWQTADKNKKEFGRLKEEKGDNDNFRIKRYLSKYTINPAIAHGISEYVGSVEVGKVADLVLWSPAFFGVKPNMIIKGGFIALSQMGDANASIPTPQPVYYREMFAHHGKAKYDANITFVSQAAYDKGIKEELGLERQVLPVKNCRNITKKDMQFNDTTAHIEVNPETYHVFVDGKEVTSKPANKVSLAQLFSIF
Sequence of Urease from H. pylori (P14916 whole entry, further chain): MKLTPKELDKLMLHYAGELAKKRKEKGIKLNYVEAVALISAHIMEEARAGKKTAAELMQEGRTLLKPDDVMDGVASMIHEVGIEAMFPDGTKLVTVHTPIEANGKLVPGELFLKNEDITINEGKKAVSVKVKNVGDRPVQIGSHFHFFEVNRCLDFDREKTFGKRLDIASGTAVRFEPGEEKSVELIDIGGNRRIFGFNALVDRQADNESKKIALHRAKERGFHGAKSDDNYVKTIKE

For the molecule `NC(N)=O` [urea], the Km was 300 µM.
